Measurements: PubChem BioAssay (NCI)
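Method: 48-hour compound exposure of cells in 96-well plates, five concentrations, linear interpolation of endpoints. GI50 marks 50% less growth. TGI is the concentration that stops growth completely.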

Tests used:
Assay in all cases: NCI anticancer screen, dose series, 48 h
[1] = system: MCF7 breast
[2] = system: U251 CNS
[3] = system: HCC-2998 colon
[4] = system: SNB-75 CNS
[5] = system: MOLT-4 leukemia
[6] = system: SK-MEL-5 melanoma
[7] = system: COLO 205 colon
[8] = system: HCT-15 colon
[9] = system: NCI-H226 lung
[10] = system: RXF 393 renal
[11] = system: SK-MEL-28 melanoma
[12] = system: OVCAR-4 ovarian
[13] = system: 786-0 renal
[14] = system: PC-3 prostate
[15] = system: SK-MEL-2 melanoma
[16] = system: HCT-116 colon
[17] = system: A549 NSCLC
[18] = system: KM12 colon
[19] = system: TK-10 renal
[20] = system: DU-145 prostate
[21] = system: MDA-MB-435
[22] = system: ACHN renal
[23] = system: CCRF-CEM leukemia
[24] = system: K-562 leukemia
[25] = system: NCI-H460 lung
[26] = system: RPMI-8226 leukemia
[27] = system: NCI-H23 lung
[28] = system: T-47D breast
[29] = system: OVCAR-3 ovarian
[30] = system: SF-268 CNS
[31] = system: MDA-MB-231 breast
[32] = system: A498 renal
[33] = system: SK-OV-3 ovarian
[34] = system: UACC-257 melanoma
[35] = system: LOX IMVI melanoma
[36] = system: SW-620 colon
[37] = system: UO-31 renal
[38] = system: CAKI-1 renal
[39] = system: HOP-62 NSCLC
[40] = system: M14 melanoma
[41] = system: HOP-92 NSCLC
[42] = system: UACC-62 melanoma
[43] = system: NCI/ADR-RES ovarian
[44] = system: SNB-19 CNS
[45] = system: EKVX NSCLC
[46] = system: BT-549 breast
[47] = system: SF-295 CNS
[48] = system: OVCAR-5 ovarian
[49] = system: SF-539 CNS
[50] = system: SR leukemia
[51] = system: HL-60(TB) leukemia
[52] = system: MALME-3M melanoma
[53] = system: HT29 colon
[54] = system: NCI-H522 lung
[55] = system: OVCAR-8 ovarian
[56] = system: SN12C renal
[57] = system: IGROV1 ovarian

## Cc1ccc(C2c3c(n(C)c(=O)n(C)c3=O)OC(N(C)C)(N(C)C)C2(F)F)cc1 (configuration not stated)
[1]
  TGI: > 100 µM
[2]
  TGI: > 100 µM
[3]
  TGI: > 100 µM
[4]
  TGI: > 100 µM
[5]
  TGI: > 100 µM
[6]
  TGI: > 100 µM
[7]
  TGI: > 100 µM
[8]
  TGI: > 100 µM
[9]
  TGI: > 100 µM
[10]
  TGI: > 100 µM
[11]
  TGI: > 100 µM
[12]
  TGI: > 100 µM
[13]
  TGI: > 100 µM
[14]
  TGI: > 100 µM
[15]
  TGI: > 100 µM
[16]
  TGI: > 100 µM
[17]
  TGI: > 100 µM
[18]
  TGI: > 100 µM
[19]
  TGI: > 100 µM
[20]
  TGI: > 100 µM
[21]
  TGI: > 100 µM
[22]
  TGI: > 100 µM
[23]
  TGI: > 100 µM
[24]
  TGI: > 100 µM
[25]
  TGI: > 100 µM
[26]
  TGI: > 100 µM
[27]
  TGI: > 100 µM
[28]
  TGI: > 100 µM
[29]
  TGI: > 100 µM
[30]
  TGI: > 100 µM
[31]
  TGI: > 100 µM
[32]
  TGI: > 100 µM
[33]
  TGI: > 100 µM
[34]
  TGI: > 100 µM
[35]
  TGI: > 100 µM
[36]
  TGI: > 100 µM
[37]
  TGI: > 100 µM
[38]
  TGI: > 100 µM
[39]
  TGI: > 100 µM
[40]
  TGI: > 100 µM
[41]
  TGI: > 100 µM
[42]
  TGI: > 100 µM
[43]
  TGI: > 100 µM
[44]
  TGI: > 100 µM
[45]
  TGI: > 100 µM
[46]
  TGI: > 100 µM
[47]
  TGI: > 100 µM
[48]
  TGI: > 100 µM

## COc1ccc(-c2cc(-c3ccc(Nc4ccnc5cc(C(F)(F)F)ccc45)cc3)nc(N)c2C#N)cc1
[1]
  TGI: > 100 µM
[2]
  TGI: > 100 µM
[3]
  TGI: > 100 µM
[4]
  TGI: 71.6 µM
[5]
  TGI: > 100 µM
[6]
  TGI: > 100 µM
[49]
  TGI: > 100 µM
[7]
  TGI: > 100 µM
[8]
  TGI: > 100 µM
[9]
  TGI: > 100 µM
[10]
  TGI: > 100 µM
[11]
  TGI: > 100 µM
[12]
  TGI: > 100 µM
[13]
  TGI: > 100 µM
[14]
  TGI: > 100 µM
[15]
  TGI: > 100 µM
[16]
  TGI: 78.7 µM
[17]
  TGI: > 100 µM
[18]
  TGI: > 100 µM
[19]
  TGI: > 100 µM
[20]
  TGI: > 100 µM
[21]
  TGI: > 100 µM
[22]
  TGI: > 100 µM
[50]
  TGI: > 100 µM
[24]
  TGI: > 100 µM
[25]
  TGI: > 100 µM
[26]
  TGI: > 100 µM
[27]
  TGI: > 100 µM
[28]
  TGI: > 100 µM
[29]
  TGI: 33.7 µM
[31]
  TGI: > 100 µM
[32]
  TGI: > 100 µM
[33]
  TGI: > 100 µM
[35]
  TGI: > 100 µM
[36]
  TGI: > 100 µM
[37]
  TGI: > 100 µM
[38]
  TGI: > 100 µM
[51]
  TGI: > 100 µM
[39]
  TGI: > 100 µM
[40]
  TGI: > 100 µM
[41]
  TGI: 90 µM
[42]
  TGI: > 100 µM
[43]
  TGI: > 100 µM
[52]
  TGI: > 100 µM
[44]
  TGI: > 100 µM
[45]
  TGI: > 100 µM
[46]
  TGI: > 100 µM
[47]
  TGI: > 100 µM
[48]
  TGI: > 100 µM
[53]
  TGI: > 100 µM

## Cc1c(C(N)=O)sc2c1c(=O)n(Cc1ccccc1)c1nnc(SCC(=O)Nc3ccc(Cl)cc3)n21
[1]
  GI50: 6.61 µM
  TGI: > 100 µM
[2]
  GI50: 4.14 µM
  TGI: 19.5 µM
[3]
  GI50: 5.56 µM
  TGI: > 100 µM
[5]
  GI50: > 100 µM
  TGI: > 100 µM
[6]
  GI50: 4.89 µM
  TGI: 24 µM
[49]
  GI50: 2.53 µM
  TGI: 6.33 µM
[7]
  GI50: 6.99 µM
  TGI: > 100 µM
[8]
  GI50: > 100 µM
  TGI: > 100 µM
[9]
  GI50: 5.8 µM
  TGI: 46.2 µM
[13]
  GI50: 2.46 µM
  TGI: 7.78 µM
[14]
  GI50: 3.3 µM
  TGI: > 100 µM
[15]
  GI50: > 100 µM
  TGI: > 100 µM
[16]
  GI50: 1.95 µM
  TGI: 4.85 µM
[18]
  GI50: 15.5 µM
  TGI: > 100 µM
[20]
  GI50: > 100 µM
  TGI: > 100 µM
[21]
  GI50: > 100 µM
  TGI: > 100 µM
[22]
  GI50: > 100 µM
  TGI: > 100 µM
[50]
  GI50: 3.19 µM
  TGI: 14 µM
[23]
  GI50: 25.1 µM
  TGI: > 100 µM
[24]
  GI50: 12.6 µM
  TGI: > 100 µM
[25]
  GI50: 3.28 µM
  TGI: > 100 µM
[54]
  GI50: 4.12 µM
  TGI: > 100 µM
[55]
  GI50: 4.03 µM
  TGI: > 100 µM
[27]
  GI50: 2.78 µM
  TGI: 10.7 µM
[28]
  GI50: 3.52 µM
  TGI: 15.1 µM
[30]
  GI50: 8.05 µM
  TGI: > 100 µM
[31]
  GI50: 3.81 µM
  TGI: 19.4 µM
[32]
  GI50: 2.51 µM
  TGI: > 100 µM
[33]
  GI50: 3.37 µM
  TGI: > 100 µM
[34]
  GI50: 3.44 µM
  TGI: > 100 µM
[35]
  GI50: 5.45 µM
  TGI: > 100 µM
[56]
  GI50: > 100 µM
  TGI: > 100 µM
[36]
  GI50: > 100 µM
  TGI: > 100 µM
[37]
  GI50: > 100 µM
  TGI: > 100 µM
[38]
  GI50: > 100 µM
  TGI: > 100 µM
[51]
  GI50: > 100 µM
  TGI: > 100 µM
[39]
  GI50: 3.71 µM
  TGI: 15.5 µM
[40]
  GI50: 4.63 µM
  TGI: > 100 µM
[42]
  GI50: 9.26 µM
  TGI: > 100 µM
[43]
  GI50: > 100 µM
  TGI: > 100 µM
[44]
  GI50: 63.5 µM
  TGI: > 100 µM
[45]
  GI50: 18.1 µM
  TGI: > 100 µM
[46]
  GI50: 3.65 µM
  TGI: > 100 µM
[47]
  GI50: 4.71 µM
  TGI: 73.8 µM
[57]
  GI50: 28 µM
  TGI: > 100 µM
[48]
  GI50: > 100 µM
  TGI: > 100 µM
[53]
  GI50: > 100 µM
  TGI: > 100 µM
